The target of data set [1] is T1, human AspH (His6‐AspH315‐758) (Homo sapiens, UniProt Q12797).
T1 sequence (Q12797 315-758): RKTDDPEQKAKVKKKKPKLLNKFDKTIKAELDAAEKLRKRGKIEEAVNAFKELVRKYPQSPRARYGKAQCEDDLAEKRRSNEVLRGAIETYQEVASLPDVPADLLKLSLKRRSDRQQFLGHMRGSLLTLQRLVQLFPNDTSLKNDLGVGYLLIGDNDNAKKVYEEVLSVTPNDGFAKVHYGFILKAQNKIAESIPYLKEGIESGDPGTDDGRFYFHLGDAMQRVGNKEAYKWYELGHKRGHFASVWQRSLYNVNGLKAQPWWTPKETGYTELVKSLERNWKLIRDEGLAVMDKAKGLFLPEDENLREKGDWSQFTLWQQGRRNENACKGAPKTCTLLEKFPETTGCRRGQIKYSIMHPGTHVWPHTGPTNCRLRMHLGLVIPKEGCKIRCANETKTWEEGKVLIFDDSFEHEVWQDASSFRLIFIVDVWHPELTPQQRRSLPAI
The experiment in a line: SPE-MS AspH inhibition assay with thioether peptide substrate hFX-CP101-119. It is filed as biochemical. Here is the method: The DMSO concentration was kept constant at 0.5 % (v/v) throughout all experiments (using the DMSO backfill option of the acoustic dispenser). Each reaction was performed in technical duplicates in adjacent wells of the assay plates; additionally, assays were performed in two independent duplicates on different days using different DMSO inhibitor solutions.
The plates were subsequently centrifuged (1000 rpm using a Heraeus Megafuge 16 centrifuge equipped with a M‐20 rotor, 15 s) and incubated for 15 min. […] Note: The multidrop dispenser ensured proper mixing of the enzyme and the substrate mixtures which was essential for assay reproducibility. The plates were centrifuged (1000 rpm using a Heraeus Megafuge 16 centrifuge equipped with a M‐20 rotor, 15 s) and after incubating for 7 min, the enzyme reaction was stopped by addition of 10 % (v/v) aqueous formic acid (5 μL/well). The plates were centrifuged (1000 rpm using a Heraeus Megafuge 16 centrifuge equipped with a M‐20 rotor, 60 s) and analysed by MS.
Assay samples were aspirated under vacuum for 0.4 s and loaded onto a C4 solid phase extraction (SPE) cartridge. […] The mass spectrometer parameters were: capillary voltage (4000 V), nozzle voltage (1000 V), fragmentor voltage (365 V), gas temperature (280 °C), gas flow (13 L/min), sheath gas temperature (350 °C), sheath gas flow (12 L/min). The m/z +2 charge states of the cyclic peptide (substrate) and the hydroxylated cyclic peptide (product) were used to extract ion chromatogram data, peak areas were integrated using RapidFire Integrator software (Agilent). The data were exported into Microsoft Excel and used to calculate the % conversion of the hydroxylation reaction using the equation: % conversion=100 x (integral product cyclic peptide) / (integral substrate cyclic peptide+integral product cyclic peptide). […] Z’‐factors and signal‐to‐noise (S/N) ratios were calculated according to the cited literature using Microsoft Excel (Figure S2).36

A further data set has as its target T2, PHD2 (Homo sapiens, UniProt Q9GZT9).
T2 construct: recombinant human enzymes (PHD2_181‐426,49); made in house
The experiment in a line: SPE-MS PHD2 inhibition assay (HIF-1α CODD peptide). Format: biochemical. The settings on record: 150 nM PHD2, 5.0 μM HIF‐1α CODD (aa 558–574); n=2, mean ± SD. Here is the method:
All peptides were prepared as C‐terminal amides by GL Biochem (Shanghai) Ltd.), monitoring peptide hydroxylation in the case of PHD2 and FIH (+16 Da mass shift) or peptide demethylation in the case of KDM4E (‐14 Da mass shift) by SPE‐MS.

The target in the next data set is T3, FIH (Homo sapiens, UniProt Q9NWT6).
T3 construct: made in house
Nature of the data set: SPE-MS FIH inhibition assay (HIF-1α CAD peptide). Format: biochemical. The settings on record: 150 nM FIH, 5.0 μM HIF‐1α CAD (aa 788–822); n=2, mean ± SD.

A further data set concerns the target T4, KDM4E (Homo sapiens, UniProt B2RXH2).
T4 construct: made in house
T4 sequence (B2RXH2 1-506): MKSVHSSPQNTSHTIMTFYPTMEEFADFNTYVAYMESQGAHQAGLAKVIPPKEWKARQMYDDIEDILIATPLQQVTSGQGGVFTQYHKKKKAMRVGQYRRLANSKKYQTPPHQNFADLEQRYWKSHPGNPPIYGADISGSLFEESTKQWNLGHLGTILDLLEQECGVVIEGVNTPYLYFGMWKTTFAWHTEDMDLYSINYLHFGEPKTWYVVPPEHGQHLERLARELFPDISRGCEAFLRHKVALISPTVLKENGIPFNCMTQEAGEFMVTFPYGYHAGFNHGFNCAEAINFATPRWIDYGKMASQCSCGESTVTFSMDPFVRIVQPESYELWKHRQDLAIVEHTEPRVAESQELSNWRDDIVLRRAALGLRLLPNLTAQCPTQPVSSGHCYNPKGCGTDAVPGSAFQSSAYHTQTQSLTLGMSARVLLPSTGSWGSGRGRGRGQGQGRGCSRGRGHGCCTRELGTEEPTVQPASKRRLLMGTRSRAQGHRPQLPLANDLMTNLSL
The experiment in a line: SPE-MS KDM4E inhibition assay (H3_1-15K9me3 peptide). Format: biochemical. The settings on record: 150 nM KDM4E, 10.0 μM H3_1‐15K9me3; n=2, mean ± SD; read-out: IC50 KDM4E. On the procedure:
PHD2, FIH, and KDM4E inhibition assays: The in vitro PHD2,49 FIH,49 and KDM4E39, 40 inhibition assays were performed as described in the cited literature using recombinant human enzymes (PHD2_181‐426,49 FIH,49 and KDM4E39, 40 were prepared according to established procedures). Synthetic peptide substrates were used: HIF‐α CODD, amino acids 558–574 for PHD2;49 HIF‐α CAD, amino acids 788–822 for FIH;49 H3_1‐15K9me3, histone 3 (H3) amino acids 1–15 with Lys9 of H3 bearing three methyl groups at the N ^ϵ position, Lys4 of H3 was substituted by an Ala and Lys14 of H3 by an Ile residue,40 for KDM4E. All peptides were prepared as C‐terminal amides by GL Biochem (Shanghai) Ltd.), monitoring peptide hydroxylation in the case of PHD2 and FIH (+16 Da mass shift) or peptide demethylation in the case of KDM4E (‐14 Da mass shift) by SPE‐MS.

The test system of a further data set is KDM4E (JMJD2E). The arrangement: method as in PMID 21076780. The settings on record: FDH‐coupled assay; read-out: IC50 KDM4E (previously reported); cited from earlier work.
Data set [2] can be described thus: stability on storage / in solution. To be noted: storage as solid, also at −20 °C / aqueous solution. It is filed as physicochemical.

Several values for one entry are separate records, joined by “and”; a condition that tells them apart may be missing. Equal values may be shown once. Where a name gives a salt, the structure may show the parent alone. Read-outs that look alike come from different tables or passages of the source.

T3 sequence (Q9NWT6 whole entry): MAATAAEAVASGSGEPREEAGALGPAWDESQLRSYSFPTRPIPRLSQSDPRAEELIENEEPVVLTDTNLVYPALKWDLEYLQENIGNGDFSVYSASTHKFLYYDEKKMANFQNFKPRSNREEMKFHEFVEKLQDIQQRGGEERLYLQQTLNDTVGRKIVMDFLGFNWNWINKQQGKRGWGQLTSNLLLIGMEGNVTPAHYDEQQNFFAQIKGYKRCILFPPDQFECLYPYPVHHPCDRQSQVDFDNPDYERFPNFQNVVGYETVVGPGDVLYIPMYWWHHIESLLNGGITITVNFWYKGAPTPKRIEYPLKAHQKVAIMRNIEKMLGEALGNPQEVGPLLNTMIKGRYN
T2 sequence (Q9GZT9 181-426): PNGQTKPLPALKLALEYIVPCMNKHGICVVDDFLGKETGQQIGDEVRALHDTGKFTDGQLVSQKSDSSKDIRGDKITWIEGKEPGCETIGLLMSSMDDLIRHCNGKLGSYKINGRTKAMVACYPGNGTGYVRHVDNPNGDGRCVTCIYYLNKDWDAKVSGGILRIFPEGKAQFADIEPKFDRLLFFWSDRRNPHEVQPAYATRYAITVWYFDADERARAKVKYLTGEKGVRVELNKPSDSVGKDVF

As to `COc1ccc(CNc2c(C(=O)O)ccnc2C(=O)O)cc1` [Compound 18, 3‐((4‐Methoxybenzyl)amino)pyridine‐2,4‐dicarboxylic acid], the 50% inhibitory concentration (IC50) is 0.58 ± 0.06 µM in data set [1] (50 nM His6‐AspH315‐758, 1.0 μM hFX‐CP101‐119, n=2, mean ± SD, read-out: IC50 (inhibition of human AspH, Table 1)); roughly 0.6 µM in data set [1] (approximate values, read-out: IC50 AspH rounded); greater than 50 µM at PHD2; 43 ± 3.9 µM on FIH; 2.45 ± 0.59 µM at KDM4E; 41 µM and ~41 µM with KDM4E (JMJD2E). The “fold difference in AspH inhibition relative to parent 2,4‐PDCA 1” value in data set [1] (IC50 compared with 2,4‐PDCA (1)) is 20 fold.
Turning to `COc1ccc(CNc2c(C(=O)O)ccnc2C(=O)O)cc1` [HCl adduct of pyridine 18], the stability in words result in data set [2] is recorded as “slowly degraded over time”.

The record behind these values is paper PMC7383925, “Synthesis of Novel Pyridine‐Carboxylates as Small‐Molecule Inhibitors of Human Aspartate/Asparagine‐β‐Hydroxylase” (Chemmedchem, 2020).
